From patent publication US20260306640A1, “TECHNOLOGIES TARGETING CELL STATES” (Auron Therapeutics, Inc., priority 2023, published 2026)

Columns and labels:
KAT2A = KAT2A (Homo sapiens, UniProt Q92830); test: KAT2A degradation, Western Blot (Jess), NCI-H1048 cells; type: cell-based; set-up: degrader, Western blot (Jess); details: NCI-H1048 cells, KAT2A, 24 h, Western Blot, vs DMSO; read-out: KAT2A NCI-H1048 DC50
Protocol: (§1) MOLM-13 cells or NCI-H1048 cells were used for Western Blot analysis of KAT2A degradation. KAT2B degradation can be measured in a similar manner with NCI-H1048 cells.
(§2) H1048 cells were maintained at 37° C. in 5% CO2 and 90% humidity in HITES medium with 5% fetal bovine serum (FBS). HITES medium was […] with the following additions: 0.005 mg/ml Insulin, 0.01 mg/ml Transferrin, 30 nM Sodium selenite, 10 nM Hydrocortisone, 10 nM beta-estradiol, and extra 2 mM L-glutamine (for final concentration of 4.5 mM). Cells were plated in full media at 1 million cells/2 mL in a 6-well tissue culture treated plate with or without compounds for 24 h at 37° C. in 5% CO2.
(§3) MOLM-13 cells or NCI-H1048 cells were washed with PBS, then lysed with RIPA buffer containing 1×protease and phosphatase inhibitors (SantaCruz Biotechnologies Cat #sc-24948A). Protein was isolated by centrifugation at 12,000×g for 10 minutes at 4° C. and supernatant was collected. Protein was quantified via Bradford assay. Samples were diluted to 4 μg lysate in 16 μL RIPA buffer and then 4 μL of Jess Sample Buffer. Samples were heated at 95° C. for 5 minutes. Samples were loaded onto 12-230 kDa Jess™ Separation Module, 8×25 capillary cartridges (SM-W004, Biotechne). Antibodies loaded were: Primary antibody for KAT2A (GCN5L2 (C26A10) Rabbit mAb (3305, CST)) and for KAT2B (PCAF (C14G9)) Rabbit mAb (3378, CST) at 1:1000 and Anti-Rabbit Detection Module for Jess™ (Cat No #DM-001, Biotechne). Signal was detected by chemiluminescence.
(§4) DC50 values were determined from percent reduction of protein as compared to the DMSO control.

KAT2B = KAT2B (Homo sapiens, UniProt Q92831); test: KAT2B degradation, Western Blot (Jess), NCI-H1048 cells; type: cell-based; set-up: degrader, Western blot (Jess); details: NCI-H1048 cells, KAT2B, 24 h, Western Blot, vs DMSO; read-out: KAT2B NCI-H1048 DC50
KAT2B, sequence (Q92831 whole entry): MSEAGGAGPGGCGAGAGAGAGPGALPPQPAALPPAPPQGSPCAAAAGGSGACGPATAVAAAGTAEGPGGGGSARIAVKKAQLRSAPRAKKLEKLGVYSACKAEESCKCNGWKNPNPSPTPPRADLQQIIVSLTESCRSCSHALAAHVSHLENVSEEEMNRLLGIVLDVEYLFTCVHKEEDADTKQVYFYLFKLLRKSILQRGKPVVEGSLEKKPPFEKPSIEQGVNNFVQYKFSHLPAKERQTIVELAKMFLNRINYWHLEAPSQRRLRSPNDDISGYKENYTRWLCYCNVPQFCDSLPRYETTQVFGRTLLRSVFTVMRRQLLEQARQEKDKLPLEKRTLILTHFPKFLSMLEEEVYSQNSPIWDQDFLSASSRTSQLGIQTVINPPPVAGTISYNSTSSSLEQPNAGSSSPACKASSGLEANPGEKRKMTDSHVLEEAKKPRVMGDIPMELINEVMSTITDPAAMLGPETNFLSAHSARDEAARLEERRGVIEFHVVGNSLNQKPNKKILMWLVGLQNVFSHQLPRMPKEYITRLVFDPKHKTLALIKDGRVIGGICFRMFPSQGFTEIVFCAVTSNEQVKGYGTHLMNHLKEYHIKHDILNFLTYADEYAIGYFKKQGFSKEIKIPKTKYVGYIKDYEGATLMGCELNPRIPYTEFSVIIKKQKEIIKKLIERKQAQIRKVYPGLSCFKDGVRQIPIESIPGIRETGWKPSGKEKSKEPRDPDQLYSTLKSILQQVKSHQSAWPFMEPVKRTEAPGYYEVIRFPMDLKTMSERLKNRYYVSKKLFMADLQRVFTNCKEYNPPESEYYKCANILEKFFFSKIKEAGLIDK
Protocol: as §1, §2, §3, §4

KAT2A, sequence (Q92830 whole entry): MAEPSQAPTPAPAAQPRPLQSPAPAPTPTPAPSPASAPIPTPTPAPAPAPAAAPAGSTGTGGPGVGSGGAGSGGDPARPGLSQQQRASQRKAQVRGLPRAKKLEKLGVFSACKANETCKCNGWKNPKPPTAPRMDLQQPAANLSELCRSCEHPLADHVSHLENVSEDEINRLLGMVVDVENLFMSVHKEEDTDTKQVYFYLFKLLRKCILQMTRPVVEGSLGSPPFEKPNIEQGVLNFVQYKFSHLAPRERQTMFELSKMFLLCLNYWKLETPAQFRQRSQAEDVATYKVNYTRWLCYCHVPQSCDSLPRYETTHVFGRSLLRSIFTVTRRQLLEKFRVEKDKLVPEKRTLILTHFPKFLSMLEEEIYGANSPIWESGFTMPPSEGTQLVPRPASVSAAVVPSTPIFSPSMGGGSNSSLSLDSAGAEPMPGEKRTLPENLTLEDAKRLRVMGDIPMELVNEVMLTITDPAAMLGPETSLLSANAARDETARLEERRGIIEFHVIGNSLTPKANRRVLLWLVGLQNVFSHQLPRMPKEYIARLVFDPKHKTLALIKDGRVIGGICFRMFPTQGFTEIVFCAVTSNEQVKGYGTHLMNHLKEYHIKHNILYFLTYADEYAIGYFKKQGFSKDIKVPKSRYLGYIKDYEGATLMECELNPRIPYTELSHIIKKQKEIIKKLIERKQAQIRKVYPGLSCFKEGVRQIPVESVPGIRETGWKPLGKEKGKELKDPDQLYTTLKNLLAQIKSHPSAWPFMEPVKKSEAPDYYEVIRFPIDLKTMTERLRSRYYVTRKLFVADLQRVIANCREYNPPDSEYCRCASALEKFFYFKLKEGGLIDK

| SMILES | DC50 (KAT2A) [nM] | DC50 (KAT2B) [nM] |
| --- | --- | --- |
| CC(=O)N[C@H](C(=O)N1C[C@H](O)C[C@H]1C(=O)NCc1ccc(-c2scnc2C)cc1OCCCCNC(=O)c1ccc([C@H]2C[C@@H](Nc3cnn(C)c(=O)c3Br)CN(C)C2)cc1)C(C)(C)C [Compound 406, (2S,4R)-1-((S)-2-acetamido-3,3-dimethylbutanoyl)-N-(2-(4-(4-((3R,5R)-5-((5-bromo-1-methyl-6-oxo-1,6-dihydropyridazin-4-yl)amino)-1-methylpiperidin-3-yl)benzamido)-butoxy)-4-(4-methylthiazol-5-yl)benzyl)-4-hydroxypyrrolidine-2-carboxamide] | > 30 | – |
| CN1C[C@H](Nc2cnn(C)c(=O)c2Cl)C[C@H](c2ccc(CN3CCC4(CC3)CCN(c3ccc(C5CCC(=O)NC5=O)c(C(F)(F)F)c3)CC4)cc2)C1 (stereo partly drawn) [Compound 343] | > 30 | > 30 |
| COc1cc(N2CCC3(CCN(C(=O)c4ccc([C@H]5C[C@@H](Nc6cnn(C)c(=O)c6Cl)CN(C)C5)cc4)CC3)CC2)cc(F)c1C1CCC(=O)NC1=O (stereo partly drawn) [Compound 281] | 1 to 30 | – |
| CN1C[C@H](Nc2cnn(C)c(=O)c2Br)C[C@H](c2ccc(C(=O)N3CCC4(CC3)CCN(c3ccc5c(N6CCC(=O)NC6=O)cncc5c3)CC4)cc2)C1 [Compound 375] | 1 to 30 | – |
| CN1C[C@H](Nc2cnn(C)c(=O)c2Br)C[C@H](c2ccc(C(=O)N3CCN(Cc4cnn(C5CCC(=O)NC5=O)c4)CC3)cc2)C1 (stereo partly drawn) [Compound 205] | > 30 | > 30 |
| CN1C[C@H](Nc2cnn(C)c(=O)c2Cl)C[C@H](c2ccc(C(=O)N3CCC4(CC3)CCN(c3ccc(C5CCC(=O)NC5=O)c(OC(F)(F)F)c3)CC4)cc2)C1 (stereo partly drawn) [Compound 277] | > 30 | > 30 |
| CN1C[C@H](Nc2cnn(C)c(=O)c2Br)C[C@H](c2ccc(CN3CCC(c4ccc5c(c4)C(=O)N(C4CCC(=O)NC4=O)C5=O)C(F)(F)C3)cc2)C1 (stereo partly drawn) [Compound 391] | > 30 | < 1 |
| CN1C[C@H](Nc2cnn(C)c(=O)c2Cl)C[C@H](c2ccc(C(=O)N3CCC4(CC3)CCN(c3ccc5c(N6CCC(=O)NC6=O)nccc5c3)CC4)cc2)C1 [Compound 376] | > 30 | > 30 |
| CN1C[C@H](Nc2cnn(C)c(=O)c2Br)C[C@H](c2ccc(CN3C4CC3CN(c3cccc(C5CCC(=O)NC5=O)c3)C4)cc2)C1 (stereo partly drawn) [Compound 353] | < 1 | > 30 |
| COc1cc(C2CCC3(CC2)CCN(C(=O)c2ccc([C@H]4C[C@@H](Nc5cnn(C)c(=O)c5C)CN(C)C4)cc2)CC3)ccc1C1CCC(=O)NC1=O (stereo partly drawn) [Compound 320] | < 1 | 1 to 30 |
| Cc1c(N2CCC3(CCN(C(=O)c4ccc([C@H]5C[C@@H](Nc6cnn(C)c(=O)c6Br)CN(C)C5)cc4)CC3)CC2)ccc(C2CCC(=O)NC2=O)c1F (stereo partly drawn) [Compound 235] | < 1 | < 1 |
| Cc1c(C2CCC(=O)NC2=O)ccc(N2CCC3(CCN(C(=O)c4ccc([C@H]5C[C@@H](Nc6cnn(C)c(=O)c6Cl)CN(C)C5)cc4)CC3)CC2)c1F (stereo partly drawn) [Compound 253] | < 1 | – |
| C[C@@H]1CN(c2cccc(C3CCC(=O)NC3=O)c2)C[C@H](C)N1Cc1ccc([C@H]2C[C@@H](Nc3cnn(C)c(=O)c3Cl)CN(C)C2)cc1 (stereo partly drawn) [Compound 371] | 1 to 30 | – |
| CN1C[C@H](Nc2cnn(C)c(=O)c2Br)C[C@H](c2ccc(CN3CCN(c4cncc(C5CCC(=O)NC5=O)c4)CC3)cc2)C1 (stereo partly drawn) [Compound 345] | > 30 | – |
| C[C@H](Nc1nn(C)c(=O)n(C)c1=O)[C@H](c1ccc(C(=O)N2CCC3(CC2)CCN(c2ccc(C4CCC(=O)NC4=O)cc2)CC3)cc1)N(C)C (stereo partly drawn) [Compound 431, 6-(((1S,2S)-1-(dimethylamino)-1-(4-(9-(4-(2,6-dioxopiperidin-3-yl)phenyl)-3,9-diazaspiro[5.5]undecane-3-carbonyl)phenyl)propan-2-yl)amino)-2,4-dimethyl-1,2,4-triazine-3,5(2H,4H)-dione] | 1 to 30 | – |
| COc1cc(N2CCC3(CCN(C(=O)c4ccc([C@H]5C[C@@H](Nc6cnn(C)c(=O)c6Br)CN(C)C5)cc4)CC3)CC2)cc(F)c1C1CCC(=O)NC1=O (stereo partly drawn) [Compound 280] | 1 to 30 | – |
| CN1C[C@H](Nc2cnn(C)c(=O)c2Cl)C[C@H](c2ccc(CN3CCC(c4ccc5c(c4)C(=O)N(C4CCC(=O)NC4=O)C5=O)C(F)(F)C3)cc2)C1 (stereo partly drawn) [Compound 392] | 1 to 30 | – |
| Cc1nnc2c3ccccc3c(N[C@@H](C)[C@H](c3ccc(C(=O)N4CCC5(CC4)CCN(c4ccc(C6CCC(=O)NC6=O)cc4)CC5)cc3)N(C)C)nn12 (stereo partly drawn) [Compound 426, 3-(4-(9-(4-((1S,2S)-1-(dimethylamino)-2-((3-methyl-[1,2,4]triazolo[3,4-a]phthalazin-6-yl)amino)propyl)benzoyl)-3,9-diazaspiro[5.5]undecan-3-yl)phenyl)piperidine-2,6-dione] | 1 to 30 | – |
| CN1C[C@H](Nc2cnn(C)c(=O)c2Cl)C[C@H](c2ccc(CN3CCN(c4cccc(CN5CCC(=O)NC5=O)c4)CC3)cc2)C1 [Compound 393] | > 30 | – |
| Cc1cc(N2CCC3(CCN(C(=O)c4ccc([C@H]5C[C@@H](Nc6cnn(C)c(=O)c6Br)CN(C)C5)cc4)CC3)CC2)cc(C)c1C1CCC(=O)NC1=O (stereo partly drawn) [Compound 282] | < 1 | – |
| C[C@@H]1CN(c2cccc(C3CCC(=O)NC3=O)c2)C[C@H](C)N1Cc1ccc([C@H]2C[C@@H](Nc3cnn(C)c(=O)c3Br)CN(C)C2)cc1 (stereo partly drawn) [Compound 370] | 1 to 30 | – |
| Cc1ncsc1-c1ccc(CNC(=O)[C@@H]2C[C@@H](O)CN2C(=O)[C@@H](NC(=O)C2CCN(C3CCN(C(=O)c4ccc([C@H]5C[C@@H](Nc6cnn(C)c(=O)c6Br)CN(C)C5)cc4)CC3)CC2)C(C)(C)C)cc1 [Compound 410] | – | > 30 |
| CN1C[C@H](Nc2cnn(C)c(=O)c2Br)C[C@H](c2ccc(N3CCC4(CC3)CCN(c3cccc(CN5CCC(=O)NC5=O)c3)CC4)cc2)C1 [Compound 400] | 1 to 30 | – |
| Cc1nnc2c3ccccc3c(N[C@@H](C)[C@H](c3ccc(CN4CCN(c5cccc(C6CCC(=O)NC6=O)c5)CC4)cc3)N(C)C)nn12 (stereo partly drawn) [Compound 428, 3-(3-(4-(4-((1S,2S)-1-(dimethylamino)-2-((3-methyl-[1,2,4]triazolo[3,4-a]phthalazin-6-yl)amino)propyl)benzyl)piperazin-1-yl)phenyl)piperidine-2,6-dione] | > 30 | – |

Next, values leading:

| DC50 (KAT2A) [nM] | DC50 (KAT2B) [nM] | SMILES |
| --- | --- | --- |
| < 1 | 1 to 30 | COc1cc(C2CCC3(CC2)CCN(C(=O)c2ccc([C@H]4C[C@@H](Nc5cnn(C)c(=O)c5Cl)CN(C)C4)cc2)CC3)ccc1C1CCC(=O)NC1=O (stereo partly drawn) [Compound 319] |
| < 1 | 1 to 30 | CN1C[C@H](Nc2cnn(C)c(=O)c2Br)C[C@H](c2ccc(C(=O)N3CCC4(CC3)CCN(c3ccc(NC5CCC(=O)NC5=O)c(F)c3)CC4)cc2)C1 (stereo partly drawn) [Compound 373] |
| < 1 | 1 to 30 | CN1C[C@H](Nc2cnn(C)c(=O)c2Cl)C[C@H](c2ccc(CN3CCN(c4ccc5c(C6CCC(=O)NC6=O)nccc5c4)CC3)cc2)C1 (stereo partly drawn) [Compound 383] |
| < 1 | 1 to 30 | CN1C[C@H](Nc2cnn(C)c(=O)c2Cl)C[C@H](c2ccc(C(=O)N3CCC4(CC3)CCN(c3ccc(C(=O)NC5CCC(=O)NC5=O)nc3)CC4)cc2)C1 (stereo partly drawn) [Compound 403] |
| < 1 | < 1 | CN1C[C@H](Nc2cnn(C)c(=O)c2Cl)C[C@H](c2ccc(C(=O)N3CCC4(CCN(Cc5ccc(C6CCC(=O)NC6=O)c(F)c5)CC4)CC3)cc2)C1 (stereo partly drawn) [Compound 215] |
| < 1 | 1 to 30 | CN1C[C@H](Nc2cnn(C)c(=O)c2Br)C[C@H](c2ccc(C(=O)N3CCC4(CC3)CCN(c3ccc(C5CCC(=O)NC5=O)cc3C(F)(F)F)CC4)cc2)C1 (stereo partly drawn) [Compound 220] |
| < 1 | < 1 | CN1C[C@H](Nc2cnn(C)c(=O)c2Br)C[C@H](c2ccc(C(=O)N3CCC4(CC3)CCN(c3ccc5c(c3)C(=O)N(C3CCC(=O)NC3=O)C5=O)CC4)cc2)C1 (stereo partly drawn) [Compound 300] |
| < 1 | < 1 | CN1C[C@H](Nc2cnn(C)c(=O)c2Cl)C[C@H](c2ccc(C(=O)N3CCC4(CC3)CCN(c3ccc5c(c3)oc(=O)n5C3CCC(=O)NC3=O)CC4)cc2)C1 (stereo partly drawn) [Compound 209] |
| < 1 | 1 to 30 | Cc1cc(N2CCC3(CCN(C(=O)c4ccc([C@H]5C[C@@H](Nc6c(F)nn(C)c(=O)c6Br)CN(C)C5)cc4)CC3)CC2)ccc1C1CCC(=O)NC1=O (stereo partly drawn) [Compound 213] |
| < 1 | 1 to 30 | Cc1cc(N2CCC3(CC2)CN(C(=O)c2ccc([C@H]4C[C@@H](Nc5cnn(C)c(=O)c5Br)CN(C)C4)cc2)C3)ccc1C1CCC(=O)NC1=O (stereo partly drawn) [Compound 292] |
| < 1 | 1 to 30 | COc1cc(N2CCC3(CCN(C(=O)c4ccc([C@H]5C[C@@H](Nc6cnn(C)c(=O)c6Br)CN(C)C5)cc4)CC3)CC2)cc(C)c1C1CCC(=O)NC1=O (stereo partly drawn) [Compound 287] |
